Where two headings read alike, the source gives them in different places.
How the values were obtained:
Type in all cases: cell-based
Details in all cases: geometric mean of at least 2 assay runs, † = single assay run
[1] = system: HEK293 cells overexpressing APOL1 G2; assay: APOL1 G2 HEK293 cell rescue assay (reversal of cell death caused by overexpression of APOL1)
Summary of the method: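 EC50 is the half-maximal effective concentration for reversing cell death driven by APOL1 G2 overexpression in HEK293 cells. Reported as geometric mean of at least 2 runs on separate days, each run averaging duplicate wells per plate; some values from a single run.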

[2] = system: Trypanosoma brucei Lister 427 VSG221 with APOL1 G1 recombinant protein; assay: APOL1 G1 trypanosome cell rescue assay (Example B5)
Summary of the method: (§1)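 Compounds in duplicate 2-fold, 11-point series with 0.4% DMSO final. Next, tag-free mature APOL1 variant protein went in from a 2 μg/mL solution, then trypanosomes to 250 per well. Plates incubated 20 h humidified at 37° C, equilibrated to room temperature, and CellTiter-Glo added for luminescence.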

[3] = system: Trypanosoma brucei Lister 427 VSG221 with APOL1 G2 recombinant protein; assay: APOL1 G2 trypanosome cell rescue assay (Example B5)
Summary of the method: as §1

[4] = read-out: APOL1 G1 Trypanosome Rescue EC50, Trypanosoma brucei Lister 427 VSG221 with APOL1 G1 recombinant protein, 20 hours, CellTiter-Glo
[5] = read-out: APOL1 G2 Trypanosome Rescue EC50, Trypanosoma brucei Lister 427 VSG221 with APOL1 G2 recombinant protein, 20 hours, CellTiter-Glo
[6] = Homo sapiens, HEK293, HEK293 overexpressing APOL1 G2
[7] = Trypanosoma brucei, 20 h, read-out: APOL1 G1 Trypanosome Rescue EC50, Trypanosoma brucei Lister 427 VSG221 with APOL1 G1 recombinant protein, 20 hours, CellTiter-Glo
[8] = Trypanosoma brucei, 20 h, read-out: APOL1 G2 Trypanosome Rescue EC50, Trypanosoma brucei Lister 427 VSG221 with APOL1 G2 recombinant protein, 20 hours, CellTiter-Glo

CC1(O)CC(CN2C(=O)CCc3cc(OCCN4CCC5(CC4)C(=O)Nc4ccc(Cl)cc45)cnc32)C1 (single isomer, unassigned) [Compound 322, 5-chloro-1′-{2-[(7-oxo-8-{[(trans) or (cis)-3-hydroxy-3-methylcyclobutyl]methyl}-5,6,7,8-tetrahydro-1,8-naphthyridin-3-yl)oxy]ethyl}-1,2-dihydrospiro[indole-3,4′-piperidin]-2-one]
EC50 ([1]; HEK293 overexpressing APOL1 G2): 18.5 nM | EC50 [2, 4]: 34.9 nM | EC50 [3, 5]: 11.7 nM

C[C@]1(O)C[C@@H](n2ncc3cc(OCCN4CCC5(CC4)C(=O)Nc4ccc(Cl)cc45)cnc32)C1 (single isomer, unassigned) [Compound 357, 5-chloro-1′-[2-({1-[(cis)-3-hydroxy-3-methylcyclobutyl]-1H-pyrazolo[3,4-b]pyridin-5-yl}oxy)ethyl]-1,2-dihydrospiro[indole-3,4′-piperidin]-2-one]
EC50 [1, 6]: 22.3 nM | EC50 [2, 7]: 91.6 nM | EC50 [3, 8]: 28.1 nM

CC1(O)CC(c2ncc(OCCN3CCC4(CC3)C(=O)Nc3ccc(Cl)cc34)cn2)C1 (single isomer, unassigned) [Compound 393, 5-chloro-1′-[2-({2-[(cis) or (trans)-3-hydroxy-3-methylcyclobutyl]pyrimidin-5-yl}oxy)ethyl]-1,2-dihydrospiro[indole-3,4′-piperidin]-2-one]
EC50 ([1]; HEK293 overexpressing APOL1 G2): 80.5 nM | EC50 [2, 4]: 360 nM | EC50 [3, 5]: 120 nM

C[C@]1(O)C[C@H](n2ncc3cc(OCCN4CCC5(CC4)C(=O)Nc4ccc(Cl)cc45)cnc32)C1 (single isomer, unassigned) [Compound 408, 5-chloro-1′-[2-({1-[(trans)-3-hydroxy-3-methylcyclobutyl]-1H-pyrazolo[3,4-b]pyridin-5-yl}oxy)ethyl]-1,2-dihydrospiro[indole-3,4′-piperidin]-2-one]
EC50 [1, 6]: 23.1 nM | EC50 [2, 7]: 121 nM | EC50 [3, 8]: 43.6 nM

C[C@]1(O)C[C@@H](N2C(=O)CCc3cc(OCCN4CCC5(CC4)C(=O)Nc4ccc(OC(F)F)cc45)cnc32)C1 [Cmpd 325, 5-(difluoromethoxy)-1′-[2-({7-oxo-8-[(cis)-3-hydroxy-3-methylcyclobutyl]-5,6,7,8-tetrahydro-1,8-naphthyridin-3-yl}oxy)ethyl]-1,2-dihydrospiro[indole-3,4′-piperidin]-2-one]
EC50 [1, 6]: 86.4 nM | EC50 [2, 7]: 269 nM | EC50 [3, 8]: 77.5 nM

CC(c1ncc(OCCN2CCC3(CC2)C(=O)Nc2ccc(Cl)cc23)cn1)S(C)(=O)=O (stereo not drawn) [Compound 1, 5-Chloro-1′-(2-{[2-(1-methanesulfonylethyl)pyrimidin-5-yl]oxy}ethyl)-1,2-dihydrospiro[indole-3,4′-piperidin]-2-one]
EC50 [1, 6]: 120 nM | EC50 [2, 7]: 293 nM | EC50 [3, 8]: 89.6 nM

CS(=O)(=O)C1(c2ncc(OCCN3CCC4(CC3)C(=O)Nc3ccc(Cl)cc34)cn2)CC1 [Compound 4, 5-chloro-1′-(2-{[2-(1-methanesulfonylcyclopropyl)pyrimidin-5-yl]oxy}ethyl)-1,2-dihydrospiro[indole-3,4′-piperidin]-2-one]
EC50 [1, 6]: 71.9 nM | EC50 [2, 7]: 171 nM | EC50 [3, 8]: 51.9 nM

Cc1nc(-c2ccc(OCCN3CCC4(CC3)C(=O)N(C)c3ccccc34)cc2)no1 [Compound 35, 1-methyl-1′-{2-[4-(5-methyl-1,2,4-oxadiazol-3-yl)phenoxy]ethyl}-1,2-dihydrospiro[indole-3,4′-piperidin]-2-one]
EC50 [1, 6]: 574 nM | EC50 [2, 7]: > 4000 nM | EC50 [3, 8]: > 4000 nM

CC(=O)N1CCCc2cc(OCCN3CCC4(CC3)C(=O)N(C)c3ccccc34)ccc21 [Compound 36, 1′-{2-[(1-acetyl-1,2,3,4-tetrahydroquinolin-6-yl)oxy]ethyl}-1-methyl-1,2-dihydrospiro[indole-3,4′-piperidin]-2-one]
EC50 [1, 6]: 919 nM | EC50 [2, 7]: > 4000 nM | EC50 [3, 8]: 1710 nM

CS(=O)(=O)c1c(F)cc(OCCN2CCC3(CC2)C(=O)Nc2ccccc23)cc1F [Compound 42, 1′-[2-(3,5-difluoro-4-methanesulfonylphenoxy)ethyl]-1,2-dihydrospiro[indole-3,4′-piperidin]-2-one]
EC50 [1, 6]: 343 nM | EC50 [2, 7]: 1880 nM | EC50 [3, 8]: 406 nM

O=C1Nc2ccc(Cl)cc2C12CCN(CCOc1ccc(S(=O)(=O)C3CC3)cc1)CC2 [Compound 43, 5-chloro-1′-{2-[4-(cyclopropanesulfonyl)phenoxy]ethyl}-1,2-dihydrospiro[indole-3,4′-piperidin]-2-one]
EC50 [1, 6]: 33.1 nM | EC50 [2, 7]: 86.6 nM | EC50 [3, 8]: 19.4 nM

O=C1Nc2ccccc2C12CCN(CCOc1ccc(S(=O)(=O)C(F)F)cc1)CC2 [Compound 44, 1′-[2-(4-difluoromethanesulfonylphenoxy)ethyl]-1,2-dihydrospiro[indole-3,4′-piperidin]-2-one]
EC50 [1, 6]: 116 nM | EC50 [2, 7]: 429 nM | EC50 [3, 8]: 119 nM

NC(=O)c1ccc(OCCN2CCC3(CC2)C(=O)Nc2ccc(Cl)cc23)cc1 [Compound 45, 4-(2-{5-chloro-2-oxo-1,2-dihydrospiro[indole-3,4′-piperidin]-1′-yl}ethoxy)benzamide]
EC50 [1, 6]: 122 nM | EC50 [2, 7]: 747 nM | EC50 [3, 8]: 162 nM

NC(=O)c1ccc(OCCN2CCC3(CC2)C(=O)Nc2ccc(Cl)cc23)cc1F [Compound 46, 4-(2-{5-chloro-2-oxo-1,2-dihydrospiro[indole-3,4′-piperidin]-1′-yl}ethoxy)-2-fluorobenzamide]
EC50 [1, 6]: 72.8 nM | EC50 [2, 7]: 215 nM | EC50 [3, 8]: 50.5 nM

Cc1cc(OCCN2CCC3(CC2)C(=O)Nc2ccc(Cl)cc23)ccc1C(N)=O [Compound 49, 4-(2-{5-chloro-2-oxo-1,2-dihydrospiro[indole-3,4′-piperidin]-1′-yl}ethoxy)-2-methylbenzamide]
EC50 [1, 6]: 66.4 nM | EC50 [2, 7]: 304 nM | EC50 [3, 8]: 109 nM

CS(=O)(=O)c1ccc(OCCN2CCC3(CC2)C(=O)Nc2ccc(Cl)cc23)cc1C#N [Compound 50, 5-(2-{5-chloro-2-oxo-1,2-dihydrospiro[indole-3,4′-piperidin]-1′-yl}ethoxy)-2-methanesulfonylbenzonitrile]
EC50 [1, 6]: 24.9 nM | EC50 [2, 7]: 44.9 nM | EC50 [3, 8]: 10.2 nM

CS(=O)(=O)N1CCCc2cc(OCCN3CCC4(CC3)C(=O)Nc3ccc(Cl)cc34)ccc21 [Compound 53, 5-chloro-1′-{2-[(1-methanesulfonyl-1,2,3,4-tetrahydroquinolin-6-yl)oxy]ethyl}-1,2-dihydrospiro[indole-3,4′-piperidin]-2-one]
EC50 [1, 6]: 52.9 nM | EC50 [2, 7]: 157 nM | EC50 [3, 8]: 47.8 nM

CC(=O)N1CCCc2cc(OCCN3CCC4(CC3)C(=O)Nc3ccc(Cl)cc34)ccc21 [Compound 56, 1′-{2-[(1-acetyl-1,2,3,4-tetrahydroquinolin-6-yl)oxy]ethyl}-5-chloro-1,2-dihydrospiro[indole-3,4′-piperidin]-2-one]
EC50 [1, 6]: 105 nM | EC50 [2, 7]: 319 nM | EC50 [3, 8]: 119 nM

CC(=O)N1Cc2ccc(OCCN3CCC4(CC3)C(=O)Nc3ccc(Cl)cc34)cc2C1 [Compound 57, 1′-{2-[(2-acetyl-2,3-dihydro-1H-isoindol-5-yl)oxy]ethyl}-5-chloro-1,2-dihydrospiro[indole-3,4′-piperidin]-2-one]
EC50 [1, 6]: 190 nM | EC50 [2, 7]: 672 nM | EC50 [3, 8]: 183 nM

CNC(=O)N1CCCc2cc(OCCN3CCC4(CC3)C(=O)Nc3ccc(Cl)cc34)ccc21 [Compound 60, 6-(2-{5-chloro-2-oxo-1,2-dihydrospiro[indole-3,4′-piperidin]-1′-yl}ethoxy)-N-methyl-1,2,3,4-tetrahydroquinoline-1-carboxamide]
EC50 [1, 6]: 62.7 nM | EC50 [2, 7]: 228 nM | EC50 [3, 8]: 66 nM

O=C1Nc2ccc(Cl)cc2C12CCN(CCOc1ccc3nccnc3c1)CC2 [Compound 62, 5-chloro-1′-[2-(quinoxalin-6-yloxy)ethyl]-1,2-dihydrospiro[indole-3,4′-piperidin]-2-one]
EC50 [1, 6]: 165 nM | EC50 [2, 7]: 390 nM | EC50 [3, 8]: 120 nM

CS(=O)(=O)c1ccc(OCCN2CCC3(CC2)C(=O)Nc2ccc(Cl)cc23)cc1F [Compound 63, 5-chloro-1′-[2-(3-fluoro-4-methanesulfonylphenoxy)ethyl]-1,2-dihydrospiro[indole-3,4′-piperidin]-2-one]
EC50 [1, 6]: 51.1 nM | EC50 [2, 7]: 164 nM | EC50 [3, 8]: 40.9 nM

CS(=O)(=O)c1ccc(OCCN2CCC3(CC2)C(=O)Nc2ccc(Cl)cc23)cn1 [Compound 64, 5-chloro-1′-{2-[(6-methanesulfonylpyridin-3-yl)oxy]ethyl}-1,2-dihydrospiro[indole-3,4′-piperidin]-2-one]
EC50 [1, 6]: 163 nM | EC50 [2, 7]: 712 nM | EC50 [3, 8]: 167 nM

CN1C(=O)Cc2cc(OCCN3CCC4(CC3)C(=O)Nc3ccc(Cl)cc34)ccc21 [Compound 65, 5-chloro-1′-{2-[(1-methyl-2-oxo-2,3-dihydro-1H-indol-5-yl)oxy]ethyl}-1,2-dihydrospiro[indole-3,4′-piperidin]-2-one]
EC50 [1, 6]: 87.5 nM | EC50 [2, 7]: 294 nM | EC50 [3, 8]: 96.8 nM
